Data reported in US11299496B2, “Ligands for alpha-7 nicotinic acetylcholine receptors and methods of treating neurological and inflammatory conditions” (Northeastern University, priority 2014, dated 2022).

Biological target: T1, human alpha-7 nAChR (Homo sapiens, UniProt P36544)
T1 construct: expressed in transfected cells; host or cells: Xenopus laevis oocytes (cRNA injection)
Test: Two-electrode voltage clamp of alpha-7 nAChR expressed in Xenopus oocytes (net charge)
Type: cell-based
Conditions: area under the curve of current vs. time; for Charge Alone: compound alone acting as an allosteric agonist; for Charge +C: compound together with choline or ACh, includes PAM and ago-PAM activity; call rule not given here
Experimental: The human alpha-7 nAChR receptor clone was obtained from Dr. Jon Lindstrom {University of Pennsylvania, Philadelphia, Pa.), aid the RIC-3 clone from Dr. Millet Treinin (Hebrew University, Jerusalem, Israel) for the purpose of co-injection with a7 to improve the level and speed of receptor expression (Halevi et al., 2003). After linearization and purification of cloned cDNA's, RNA, transcripts were prepared rising the appropriate mMessage mMachine kit tiom Ambion (Austin, Tex.).
Expression in X, laeivis Oocytes
Oocytes were obtained from mature (>9 cm) female Xenopus laeivis African frogs (Nasco, Ft. Atkinson, Wis.). Frogs were anesthetized in 0.7 g/L solution of ethyl 3-aminobenzoate methanesulfonate buffered with sodium bicarbonate, and oocytes were surgically removed through an abdominal incision. Harvested oocytes were treated with 1.25 mg/ml collagenase (Worthington Biochemicals, Freehold, N.J.) in calcium-free Barth's solution (88 mM NaCl, 1 mM KCl, 2.38 mM NaHCO3, 0.82 mM MgSO4, 15 mM HEPES, 12 mg/L tetracycline, pH 7.6) for 3-4 hours to remove the follicular layer. Stage-5 oocytes were isolated and injected with 50 nL (5-20 ng) of human alpha-7 and RIC-3 cRNA. Suitable levels of receptor expression were typically achieved 2-6 days after injection of cRNA. For experiments involving the PAM 4BP-TQS/GAT-107, where standard levels of expression result in ion currents too large to be recorded in voltage clamp, experiments were typically conducted 1-3 days after RNA injection.
Two-electrode voltage clamp experiments were conducted using OpusXpress6000A (Molecular Devices, Sunnyvale, Calif.), an integrated system that provides automated impalement and voltage clamp of up to eight oocytes in parallel. Both the current and voltage electrodes were filled with 3 M KCl, and oocytes were clamped at a holding potential of −60 mV. Data were collected at 50 Hz and filtered at 20 Hz. The oocytes were bath-perfused with Ringer's solution (115 mM NaCl, 10 mM HEPES, 2.5 mM KCl, 1.8 mM CaCl2, pH 7.3), and agonist solutions were delivered from a 96-well drug plate using disposable tips. Flow rates were set at 2 mL/min, with each drug or control solution delivered in 12 s durations, followed˜by 181 s washouts with Ringer's unless noted otherwise.
Experimental Protocols and Data Analysis
Responses of human alpha-7 receptors to agonists were measured as both peek current and net charge measured over a 120 s period beginning with the compound application (Papke and Papke, 2002). […] In experiments involving positive allosteric modulators (PAMs), the fast desensitization of alpha-7 was eliminated, allowing peak currents to be used as a valid measurement of the receptor-mediated responses (Wang et al., 2012; Williams et al., 2011).
Oocytes received two control ACh applications prior to receiving any drug in order to establish a steady reference response, and they received one or more control ACh applications at the end of all experiments. For experiments involving drug incubation through bath applications, all responses were normalized to the average of two ACh control responses taken immediately prior to the switch of bath solution, for each cell individually. These normalization procedures had the effect of compensating for differing levels of receptor expression among the multiple oocytes used in each experiment. Each experiment was conducted on at least four oocytes, with mean values and standard errors (S.E.M.) calculated from their normalized responses. […]

T1 sequence (P36544 23-502): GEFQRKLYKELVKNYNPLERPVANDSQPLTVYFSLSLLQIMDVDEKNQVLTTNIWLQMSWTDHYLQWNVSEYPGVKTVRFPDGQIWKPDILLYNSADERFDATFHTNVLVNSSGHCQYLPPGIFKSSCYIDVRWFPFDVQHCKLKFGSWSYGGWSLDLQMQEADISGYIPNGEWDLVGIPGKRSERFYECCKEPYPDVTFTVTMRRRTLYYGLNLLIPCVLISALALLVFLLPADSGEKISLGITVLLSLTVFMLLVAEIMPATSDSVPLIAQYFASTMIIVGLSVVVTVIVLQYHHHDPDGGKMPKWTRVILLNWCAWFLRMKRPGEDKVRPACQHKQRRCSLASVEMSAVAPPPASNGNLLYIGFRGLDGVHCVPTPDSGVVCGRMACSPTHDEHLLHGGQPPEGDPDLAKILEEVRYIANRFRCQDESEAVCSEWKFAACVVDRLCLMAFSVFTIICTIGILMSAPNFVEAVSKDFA

Row | Charge Alone | Charge +C | SMILES
1 | 0 | 8.4 | NS(=O)(=O)c1ccc([C@H]2Nc3ccc(Br)cc3[C@H]3C=CC[C@H]32)cc1 (stereo in doubt) [Compound 4, 4-(8-bromo-3a,4,5,9b-tetrahydro-3H-cyclopenta[c]quinolin-4-yl)benzenesulfonamide]
2 | Inactive | Inactive | N#Cc1ccc([C@@H]2Nc3ccc(S(N)(=O)=O)cc3[C@H]3C=CC[C@H]32)cc1 (stereo in doubt) [Compound 6, 4-(4-cyanophenyl)-3a,4,5,9b-tetrahydro-3H-cyclopenta[c]quinoline-8-sulfonamide]
3 | Inactive | Inactive | NS(=O)(=O)c1ccc2c(c1)N[C@H](c1ccc(Br)cc1)[C@@H]1CC=C[C@H]21 (stereo in doubt) [Compound 10, 4-(4-bromophenyl)-3a,4,5,9b-tetrahydro-3H-cyclopenta[c]quinoline-7-sulfonamide]
4 | Inactive | Inactive | NS(=O)(=O)c1cccc2c1N[C@H](c1ccc(Br)cc1)[C@@H]1CC=C[C@H]21 (stereo in doubt) [Compound 11, 4-(4-bromophenyl)-3a,4,5,9b-tetrahydro-3H-cyclopenta[c]quinoline-6-sulfonamide]
5 | – | 250 | Nc1ccc([C@H]2Nc3ccc(S(N)(=O)=O)cc3[C@H]3C=CC[C@H]32)cc1 (stereo in doubt) [Compound 18, 4-(4-aminophenyl)-3a,4,5,9b-tetrahydro-3H-cyclopenta[c]quinoline-8-sulfonamide]
6 | Inactive | Inactive | CN(C)S(=O)(=O)c1ccc2c(c1)[C@H]1C=CC[C@H]1[C@@H](c1ccc(Br)cc1)N2 (stereo in doubt) [Compound 21, 4-(4-bromophenyl)-N,N-dimethyl-3a,4,5,9b-tetrahydro-3H-cyclopenta[c]quinoline-8-sulfonamide]
7 | Inactive | Inactive | CNS(=O)(=O)c1ccc2c(c1)[C@H]1C=CC[C@H]1[C@@H](c1ccc(Br)cc1)N2 (stereo in doubt) [Compound 22, 4-(4-bromophenyl)-N-methyl-3a,4,5,9b-tetrahydro-3H-cyclopenta[c]quinoline-8-sulfonamide]

The remaining lines, values behind:

Row | SMILES | Charge Alone | Charge +C
8 | NS(=O)(=O)c1ccc2c(c1)[C@H]1C=CC[C@H]1[C@@H](c1ccncc1)N2 (stereo in doubt) [Compound 2, 4-(pyridin-4-yl)-3a,4,5,9b-tetrahydro-3H-cyclopenta[c]quinoline-8-sulfonamide] | Inactive | Inactive
9 | NS(=O)(=O)c1ccc2c(c1)[C@H]1OCC[C@H]1[C@@H](c1ccc(Br)cc1)N2 (stereo in doubt) [Compound 3, 4-(4-bromophenyl)-2,3,3a,4,5,9b-hexahydrofuro[3,2-c]quinoline-8-sulfonamide] | Inactive | Inactive
10 | NS(=O)(=O)c1ccc2c(c1)[C@H]1CCC[C@H]1[C@@H](c1ccc(Br)cc1)N2 (stereo in doubt) [Compound 5, 4-(4-bromophenyl)-2,3,3a,4,5,9b-hexahydro-1H-cyclopenta[c]quinoline-8-sulfonamide] | 23 | 93
11 | NS(=O)(=O)c1ccc2c(c1)[C@H]1C=CC[C@H]1[C@@H](c1ccc([N+](=O)[O-])cc1)N2 (stereo in doubt) [Compound 8, 4-(4-nitrophenyl)-3a,4,5,9b-tetrahydro-3H-cyclopenta[c]quinoline-8-sulfonamide] | 43 | 318
12 | NS(=O)(=O)c1ccc2c(c1)[C@H]1C=CC[C@H]1[C@@H](c1ccc(-c3ccccc3)cc1)N2 (stereo in doubt) [Compound 12, 4-([1,1′-biphenyl]-4-yl)-3a,4,5,9b-tetrahydro-3H-cyclopenta[c]quinoline-8-sulfonamide] | – | 76
13 | NS(=O)(=O)c1ccc2c(c1)[C@H]1C=CC[C@H]1[C@@H](Cc1ccccc1)N2 (stereo in doubt) [Compound 13, 4-benzyl-3a,4,5,9b-tetrahydro-3H-cyclopenta[c]quinoline-8-sulfonamide] | – | 76
14 | NS(=O)(=O)c1ccc2c(c1)[C@H]1C=CC[C@H]1[C@@H](c1ccoc1)N2 (stereo in doubt) [Compound 14, 4-(furan-3-yl)-3a,4,5,9b-tetrahydro-3H-cyclopenta[c]quinoline-8-sulfonamide] | Inactive | Inactive
15 | NS(=O)(=O)c1ccc2c(c1)[C@H]1C=CC[C@H]1[C@@H](c1ccsc1)N2 (stereo in doubt) [Compound 15, 4-(thiophen-3-yl)-3a,4,5,9b-tetrahydro-3H-cyclopenta[c]quinoline-8-sulfonamide] | – | 500
16 | NS(=O)(=O)c1ccc2c(c1)[C@H]1C=CC[C@H]1[C@@H](c1cccs1)N2 (stereo in doubt) [Compound 17, 4-(thiophen-2-yl)-3a,4,5,9b-tetrahydro-3H-cyclopenta[c]quinoline-8-sulfonamide] | 0.031 | 21.096
17 | NS(=O)(=O)c1ccc2c(c1)[C@H]1C=CC[C@H]1[C@@H](C1CCCCC1)N2 (stereo in doubt) [Compound 19, 4-cyclohexyl-3a,4,5,9b-tetrahydro-3H-cyclopenta[c]quinoline-8-sulfonamide] | Inactive | Inactive
18 | NS(=O)(=O)c1ccc2c(c1)[C@H]1C=CC[C@H]1[C@@H](c1ccccc1[N+](=O)[O-])N2 (stereo in doubt) [Compound 20, 4-(2-nitrophenyl)-3a,4,5,9b-tetrahydro-3H-cyclopenta[c]quinoline-8-sulfonamide] | – | 52
19 | O=S(=O)(c1ccc2c(c1)[C@H]1C=CC[C@H]1[C@@H](c1ccc(Br)cc1)N2)N1CCOCC1 (stereo in doubt) [Compound 23, 4-((4-(4-bromophenyl)-3a,4,5,9b-tetrahydro-3H-cyclopenta[c]quinolin-8-yl)sulfonyl)morpholine] | Inactive | Inactive
20 | [N-]=[N+]=Nc1ccc([C@H]2Nc3ccc(S(N)(=O)=O)cc3[C@H]3C=CC[C@H]32)cc1 (stereo in doubt) [Compound 25, 4-(4-azidophenyl)-3a,4,5,9b-tetrahydro-3H-cyclopenta[c]quinoline-8-sulfonamide] | 61 | –
21 | NS(=O)(=O)c1ccc2c(c1)[C@H]1C=CC[C@H]1[C@@H](c1ccc(N=C=S)cc1)N2 (stereo in doubt) [Compound 26, 4-(4-isothiocyanatophenyl)-3a,4,5,9b-tetrahydro-3H-cyclopenta[c]quinoline-8-sulfonamide] | 0 | 22
22 | NS(=O)(=O)c1ccc([C@H]2Nc3ccc(S(N)(=O)=O)cc3[C@H]3C=CC[C@H]32)cc1 (stereo in doubt) [Compound 28, 4-(4-sulfamoylphenyl)-3a,4,5,9b-tetrahydro-3H-cyclopenta[c]quinoline-8-sulfonamide] | – | 128
23 | NS(=O)(=O)c1ccc2c(c1)[C@H]1C=CC[C@H]1[C@@H](c1ccc(S(F)(F)(F)(F)F)cc1)N2 (stereo in doubt) [Compound 31, 4-(4-(pentafluoro-λ^6-sulfanyl)phenyl)-3a,4,5,9b-tetrahydro-3H-cyclopenta[c]quinoline-8-sulfonamide] | 89 | 206
